≈ marks a conversion by molar mass, not a printed value. Where “and” joins values, the source holds several entries; their conditions need not be identical. Equal values may be shown once. Calls of active or inactive are those of the source. The rule behind the calls is not given here.
What was measured:
[1] = Full panel mean-graph midpoint (MG-MID).
[2] = system: Panel renal (Carcinoma cell lines); test: In vitro median growth inhibitory concentration against renal cancer cell lines; format: functional; conditions: Homo sapiens
[3] = system: Panel prostate (Carcinoma cell lines); test: In vitro growth inhibitory concentration against prostate cancer cell lines; format: functional; conditions: Homo sapiens
[4] = In vitro growth inhibitory concentration against colon cancer tumor cell lines; format: functional; conditions: Homo sapiens
[5] = organism: Homo sapiens; test: Selectivity ratio between the full panel MG-MID and leukemia subpanel MG-MID was determined.; format: functional
[6] = system: Panel CNS (Carcinoma cell lines); test: In vitro growth inhibitory concentration against CNS cancer cell lines; format: functional; conditions: Homo sapiens
[7] = system: MT4; test: In vitro inhibitory activity against uninfected T4 cells; format: functional, cell-based; conditions: Homo sapiens
[8] = system: NSCLC; test: In vitro growth inhibitory concentration against non-small-cell lung cancer; format: functional; conditions: Homo sapiens
[9] = system: Panel leukemia (Carcinoma cell lines); test: In vitro growth inhibitory concentration against leukemia tumor cell lines; format: functional; conditions: Homo sapiens
[10] = Full panel mean-graph midpoint (MG-MID)
[11] = system: Panel renal (Carcinoma cell lines); test: In vitro growth inhibitory concentration against renal cancer cell lines; format: functional; conditions: Homo sapiens
[12] = system: Panel prostate (Carcinoma cell lines); test: In vitro median growth inhibitory concentration against prostate cancer cell lines; format: functional; conditions: Homo sapiens
[13] = system: Tumor cell line; test: Median lethal concentration was estimated; format: ADME, cell-based; conditions: human
[14] = system: Panel melanoma (Carcinoma cell lines); test: In vitro growth inhibitory concentration against melanoma cancer cell lines; format: functional; conditions: Homo sapiens
[15] = system: Breast cancer cell line; test: In vitro growth inhibitory concentration against breast cancer cell lines; format: functional; conditions: Homo sapiens
[16] = In vitro median growth inhibitory concentration against colon cancer cell lines; format: functional; conditions: Homo sapiens
[17] = system: Panel CNS (Carcinoma cell lines); test: In vitro median growth inhibitory concentration against CNS cancer cell lines; format: functional; conditions: Homo sapiens
[18] = system: Panel leukemia (Carcinoma cell lines); test: In vitro median growth inhibitory conc. against leukemia was estimated.; format: functional; conditions: Homo sapiens
[19] = system: Ovarian cancer cell line; test: In vitro growth inhibitory concentration against ovarian cancer cell lines; format: functional; conditions: Homo sapiens
[20] = system: Breast cancer cell line; test: (§1) In vitro median growth inhibitory concentration against breast cancer cell lines; format: functional; conditions: Homo sapiens
[21] = system: NSCLC; test: In vitro median growth inhibitory concentration against non-small-cell lung cancer; format: functional; conditions: Homo sapiens
[22] = system: Ovarian cancer cell line; test: In vitro median growth inhibitory concentration against ovarian cancer cell lines; format: functional; conditions: Homo sapiens
[23] = system: Panel melanoma (Carcinoma cell lines); test: In vitro median growth inhibitory concentration against melanoma cell lines; format: functional; conditions: Homo sapiens
[24] = system: Human immunodeficiency virus 1; test: (§2) In vitro effective concentration against HIV-1 cytopathic effect in T4 cells; Inactive; format: functional, organism-based
[25] = system: Tumor cell line; test: as §1; format: functional; conditions: Homo sapiens
[26] = system: Human alphaherpesvirus 1; test: In vitro antiviral activity against Herpes Simplex-1 virus (HSV-1) expressed as percent reduction in the number of viral plaques; format: functional; design: concentration or dose not given beside the values
[27] = system: Human alphaherpesvirus 1; test: 50% loss of the monolayer present around the viral plaques in uM; format: functional, organism-based
[28] = system: Human alphaherpesvirus 1; test: Minimum antiviral concentration proved to be lethal to viral population in ug/mL.; format: functional
[29] = system: Human alphaherpesvirus 1; test: concentration caused 50% loss of the monolayer present around the viral plaques in ug/mL.; format: functional, organism-based
[30] = system: Human alphaherpesvirus 1; test: Minimum antiviral concentration proved to be lethal to viral population in uM; format: functional
[31] = system: Human alphaherpesvirus 1; test: Concentration which caused 50% loss of the monolayer present around the viral plaques in ug/mL.; format: functional, organism-based
[32] = system: Human alphaherpesvirus 1; test: Concentration which caused 50% loss of the monolayer present around the viral plaques in uM; format: functional, organism-based
[33] = system: Tumor cell line; test: In vitro for median growth inhibitory concentration against colon cancer cell lines; format: functional; conditions: Homo sapiens
[34] = system: Tumor cell line; test: In vitro for growth inhibitory concentration against non small lung cancer cell lines; format: functional; conditions: Homo sapiens
[35] = system: Tumor cell line; test: In vitro for median growth inhibitory concentration against prostate cancer cell lines; format: functional; conditions: Homo sapiens
[36] = system: Tumor cell line; test: In vitro for median growth inhibitory concentration against melanoma cell lines; format: functional; conditions: Homo sapiens
[37] = system: Tumor cell line; test: In vitro for median growth inhibitory concentration against ovarian cancer cell lines; format: functional; conditions: Homo sapiens
[38] = system: Tumor cell line; test: In vitro for median growth inhibitory concentration against non small lung cancer cell lines; format: functional; conditions: Homo sapiens
[39] = system: Tumor cell line; test: In vitro for median growth inhibitory concentration against breast cancer cell lines; format: functional; conditions: Homo sapiens
[40] = system: Tumor cell line; test: In vitro for median growth inhibitory concentration against renal cancer cell lines; format: functional; conditions: Homo sapiens
[41] = system: Tumor cell line; test: In vitro for median growth inhibitory concentration against CNS cancer cell lines; format: functional; conditions: Homo sapiens
[42] = system: Tumor cell line; test: In vitro for median growth inhibitory concentration against leukemia; format: functional; conditions: Homo sapiens
[43] = system: T4; test: as §2; format: functional, cell-based; conditions: Homo sapiens
[44] = Therapeutic index (IC50/EC50) was determined; conditions: read-out: TI50
[45] = In vitro effective concentration against HIV-1 cytopathic effect in T4 cells; format: functional, cell-based; conditions: Homo sapiens

Structure (SMILES) | GI50 [2] | TGI [3] | TGI [4] | Ratio [5] | TGI [6] | IC50 [7] | TGI [9] | MG-MID [10] | TGI [11] | GI50 [12] | TGI [14] | TGI [15] | GI50 [16] | GI50 [17] | GI50 [18] | TGI [19] | GI50 [21] | GI50 [22] | GI50 [23] | EC50 [24] | also measured
COc1ccc(/C=C2\CN(C)CC3=C2N=C(S)NC3c2ccc(OC)cc2)cc1 (stereo unspecified) | 5.9 µM | 30.1 µM | 76.3 µM | 2.5 | 81.9 µM | 6.8 µM | 36.3 µM | 4.9 µM | 97.2 µM | 9.1 µM | 83.1 µM | 68.1 µM | 4 µM | 30 µM | 2 µM | 76.4 µM | 6.5 µM | 5 µM | 11.7 µM | Not Active | MG-MID [1]: 56.3 µM; TGI [8]: 93.6 µM; LC50 [13]: 91.8 µM; GI50 [20]: 11.1 µM
COc1ccc(/C=C2\CN(C)CC3C2=NN(c2ccccc2)C3c2ccc(OC)cc2)cc1 (stereo unspecified) | 54.7 µM |  |  | 0.7 |  | > 200 µM |  | 72.9 µM |  | > 100 µM |  |  | > 100 µM | 63.1 µM | > 100 µM |  | 82.1 µM | 80.7 µM | 77.7 µM | Not Active | GI50 [25]: 91.8 µM
CN1CC2=C(N=C(S)NC2c2cccs2)/C(=C/c2cccs2)C1 (stereo unspecified) | 75 µM | > 100 µM | > 100 µM | 2.4 | > 100 µM | 34 µM | 69.8 µM | 53.5 µM and 95.8 µM | > 100 µM | > 100 µM | > 100 µM | 98.1 µM | 70.5 µM | 76.1 µM | 22.4 µM | > 100 µM | 67.2 µM | 65.5 µM | 60.5 µM | Not Active | Reduction [26]: 27%; IC50 [27]: 0.58 µM; MAC [28]: 0.1 µg/mL; TGI [8]: > 100 µM; GI50 [20]: 45.1 µM; IC50 [29]: 0.15 µg/mL (≈ 0.417 µM); MAC [30]: 0.29 µM
CN1C/C(=C\c2cccs2)C(=O)/C(=C/c2cccs2)C1 |  |  | 72.2 µM |  | 82.7 µM | 15.2 µM | 51.6 µM |  | 70.4 µM |  | 84.1 µM | 75.4 µM |  |  |  | 81.4 µM |  |  |  |  | IC50 [31]: 0.2 µg/mL (≈ 0.663 µM); IC50 [32]: 0.66 µM; GI50 [33]: 23.7 µM; Reduction [26]: 33%; TGI [34]: 90.1 µM; MAC [28]: 0.1 µg/mL; GI50 [35]: 23.9 µM; GI50 [36]: 34.6 µM; GI50 [37]: 23.5 µM; GI50 [38]: 36.5 µM; GI50 [39]: 28.7 µM; GI50 [40]: 24.2 µM; GI50 [41]: 36.6 µM; GI50 [42]: 10.6 µM; Inhibition [43]: inactive; MAC [30]: 3.3 µM
CN1C/C(=C\c2ccncc2)C(=O)/C(=C/c2ccncc2)C1 |  |  |  |  |  | > 200 µM |  |  |  |  |  |  |  |  |  |  |  |  |  |  | selectivity ratio [44]: > 3.09; EC50 [45]: 64.7 µM

Reference: ChEMBL document CHEMBL1133460, “Synthesis and biological evaluation of certain alpha,beta-unsaturated ketones and their corresponding fused pyridines as antiviral and cytotoxic agents” (J Med Chem, 2000)
